Laboratory results as given in patent US20240368668A1, “SUBSTRATES AND BIOMARKERS OF ADAMTS7” (The Broad Institute, Inc., priority 2021, published 2024).
Square brackets hold non-standard residues; d marks the D form. Ends that are not written are not given here. Met(O) = CS(=O)CC[C@H](N)C(=O)O

Tested on: mouse ADAMTS7
Test: TMT10 TAILS N-terminomics, HUVEC experiment (process replicates, trypsin/AspN digest)
Type: cell-based, human
Settings: HUVEC TAILS HC; log fold change of N-terminal peptide, Ad-mADAMTS7 WT over EQ
In short: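 Full-length mouse ADAMTS7 (WT or E373Q mutant, C-terminal 3xFLAG) or luciferase was transduced via adenovirus, 50 MOI, into HCA-SMC (SMC1, SMC2) or HUVEC. SMC1: pooled media, technical triplicates 400 ug; SMC2: process triplicates 300 ug; HUVEC: process triplicates 200 ug, bFGF2 10 ng/ml.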

In the case of “ASMT_321 (LSSAGFR; listed as Homo sapiens)”, the logFC.mWT.over.mEQ is reported as 2.56.
“BICD1_280 (NNDDKMNGHIHGPLVKLNGDYR; listed as Homo sapiens)” was tested, and the logFC.mWT.over.mEQ was 1.31.
Work on “CLU_267 (FQHPPTEFIR; listed as Homo sapiens)” yielded a logFC.mWT.over.mEQ of 1.64.
“CTGF_173 (TVVGPALAAYR; listed as Homo sapiens)” gave a logFC.mWT.over.mEQ of 3.39.
In the case of “CTGF_174 (VVGPALAAYR; listed as Homo sapiens)”, the logFC.mWT.over.mEQ is reported as 2.44.
In the case of “FN1_1624 (LVQTAVTTIPAPT; listed as Homo sapiens)”, the logFC.mWT.over.mEQ is reported as 1.56.
In the case of “FN1_1743 (WESPQGQVSR; listed as Homo sapiens)”, the logFC.mWT.over.mEQ is reported as 3.05.
“LTBP2_129 (QQQPAPR; listed as Homo sapiens)” showed a logFC.mWT.over.mEQ of 5.32.
Substance “LTBP2_253 (GEGTLAR; listed as Homo sapiens)” has a logFC.mWT.over.mEQ of 2.99.
“LTBP3_164 (LSTGALPPLAPEG; listed as Homo sapiens)” gave a logFC.mWT.over.mEQ of 2.21.
“LTBP3_205 (HAAFLVPLGPGQISA; listed as Homo sapiens)” was tested, and the logFC.mWT.over.mEQ was 2.54.
For “LTBP3_221 (VQAPPPVVNVR; listed as Homo sapiens)”, the logFC.mWT.over.mEQ was 3.11.
In the case of “MCFD2_55 (HLEGVINKPEA; listed as Homo sapiens)”, the logFC.mWT.over.mEQ is reported as 0.99.
Work on “PSAP_301 (LVEPIKKH; listed as Homo sapiens)” yielded a logFC.mWT.over.mEQ of 2.44.
With “PTBP1_376 (AAAAAGR; listed as Homo sapiens)” the logFC.mWT.over.mEQ was 1.06.
Work on “PZP_578 (HAHLQVAAAPQSLCALR; listed as Homo sapiens)” yielded a logFC.mWT.over.mEQ of 2.45.
In the case of “THBS1_630 (FGQGVEHATANK; listed as Homo sapiens)”, the logFC.mWT.over.mEQ is reported as 2.28.
Substance “UQCRH_76 (HGSPNNSERAMRAVGE[Met(O)]CKGPGAAR; listed as Homo sapiens)” has a logFC.mWT.over.mEQ of 1.38.
“ZYX_244 (PVSLANTQPR; listed as Homo sapiens)” was tested, and the logFC.mWT.over.mEQ was 1.02.
